# Measured values published in ChEMBL document CHEMBL5137037, “Phage Display Selected Cyclic Peptide Inhibitors of Kallikrein-Related Peptidases 5 and 7 and Their In Vivo Delivery to the Skin” (J Med Chem, 2022).
# Numbered stars: 1 amine (or outer) side, 2 acyl side, 3 side chain; on linkers, the order of the positions; unused ones are H or OH. Bridge positions count the residues as written; N and C are the ends. Peptide text beside a SMILES is read from it. CH2COCH2 = O=C(C[*:1])C[*:2]
# Key:
# Kallikrein-5 = biological target: T1, Kallikrein-5 (Homo sapiens, UniProt Q9Y337); assay: Inhibition of C-terminal poly-His-tagged human recombinant KLK5 (30 to 293 residues) transfected in CHO cells assessed as inhibition constant using Boc-VPR-AMC as fluorogenic substrate incubated for 30 mins by fluorescence plate reader assay; assay type: cell-based
# T1 sequence (Q9Y337 whole entry): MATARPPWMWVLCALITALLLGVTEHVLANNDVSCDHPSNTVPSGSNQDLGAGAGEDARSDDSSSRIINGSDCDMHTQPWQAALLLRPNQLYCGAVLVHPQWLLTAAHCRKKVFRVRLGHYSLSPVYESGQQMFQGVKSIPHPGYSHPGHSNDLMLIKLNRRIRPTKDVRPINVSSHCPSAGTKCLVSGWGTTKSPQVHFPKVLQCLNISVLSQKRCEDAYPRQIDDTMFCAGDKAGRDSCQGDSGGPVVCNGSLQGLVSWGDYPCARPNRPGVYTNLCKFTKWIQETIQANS
# Albumin = Albumin (Homo sapiens, UniProt P02768); assay: Binding affinity to human serum albumin by fluorescence polarization assay
# [1] = Stability of the compound in human plasma assessed as half life […] by LC-MS analysis; assay type: ADME, cell-free
# Kallikrein-7 = Kallikrein-7 (Homo sapiens, UniProt P49862); assay: Inhibition of C-terminal poly-His-tagged human recombinant KLK7 (30 to 253 residues) transfected in CHO cells assessed as inhibition constant using KHLY-pNA as fluorogenic substrate incubated for 30 mins by fluorescence plate reader assay; assay type: cell-based
# Kallikrein-7, sequence (P49862 whole entry, the tested form may be a part): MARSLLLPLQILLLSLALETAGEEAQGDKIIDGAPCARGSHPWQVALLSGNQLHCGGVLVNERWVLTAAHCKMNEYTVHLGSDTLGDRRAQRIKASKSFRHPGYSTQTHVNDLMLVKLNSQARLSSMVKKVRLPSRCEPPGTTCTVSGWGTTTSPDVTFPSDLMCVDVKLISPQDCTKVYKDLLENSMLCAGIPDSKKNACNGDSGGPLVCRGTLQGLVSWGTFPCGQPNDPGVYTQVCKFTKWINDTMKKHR
# Albumin, sequence (P02768 whole entry): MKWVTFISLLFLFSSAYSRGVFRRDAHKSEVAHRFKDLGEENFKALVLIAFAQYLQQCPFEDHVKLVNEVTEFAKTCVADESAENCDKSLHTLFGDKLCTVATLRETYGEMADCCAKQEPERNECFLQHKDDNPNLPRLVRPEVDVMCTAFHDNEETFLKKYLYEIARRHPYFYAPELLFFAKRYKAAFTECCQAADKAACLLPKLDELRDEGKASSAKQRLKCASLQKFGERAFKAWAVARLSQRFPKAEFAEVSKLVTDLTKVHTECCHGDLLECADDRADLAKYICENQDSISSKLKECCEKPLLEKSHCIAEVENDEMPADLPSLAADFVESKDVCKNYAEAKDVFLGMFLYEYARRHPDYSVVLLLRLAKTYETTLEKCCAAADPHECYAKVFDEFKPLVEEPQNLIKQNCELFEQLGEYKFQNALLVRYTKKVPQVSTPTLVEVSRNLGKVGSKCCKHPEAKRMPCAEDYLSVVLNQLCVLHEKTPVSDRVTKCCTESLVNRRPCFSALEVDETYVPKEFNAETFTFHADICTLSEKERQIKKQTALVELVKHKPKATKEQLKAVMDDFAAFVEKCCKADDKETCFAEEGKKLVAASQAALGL
Kd (Albumin),half-life [1],Structure (SMILES),Ki (Kallikrein-5),further results
118 nM,,CCCCCCCCCCCCCCCC(=O)NCCCC[C@H](NC(=O)[C@H](CCC(=O)O)NC(=O)[C@H](Cc1ccc(O)cc1)NC(=O)[C@H](CCC(=O)O)NC(=O)COCCOCCNC(=O)c1ccc(-c2c3ccc(=O)cc-3oc3cc(O)ccc23)c(C(=O)O)c1)C(=O)N[C@@H](CCC(=O)O)C(=O)N[C@@H](Cc1ccc(O)cc1)C(=O)N[C@@H](CCC(=O)O)C(=O)NCCOCCOCC(=O)N[C@H]1CSCC(=O)CSC[C@@H](C(N)=O)NC(=O)[C@@H]2CCCN2C(=O)[C@H](Cc2ccc(O)cc2)NC(=O)[C@H](CCC(N)=O)NC(=O)[C@H](CCCNC(=N)N)NC(=O)[C@H]([C@@H](C)O)NC1=O,23 nM,
,> 96 h,CCCCCCCCCCCCCCCC(=O)NCCCC[C@H](NC(=O)[C@H](CCC(=O)O)NC(=O)[C@H](Cc1ccc(O)cc1)NC(=O)[C@H](CCC(=O)O)NC(=O)COCCOCCNC(=O)c1ccc(-c2c3ccc(=O)cc-3oc3cc(O)ccc23)c(C(=O)O)c1)C(=O)N[C@@H](CCC(=O)O)C(=O)N[C@@H](Cc1ccc(O)cc1)C(=O)N[C@@H](CCC(=O)O)C(=O)NCCOCCOCC(=O)NCCCC[C@H](NC(=O)CNC(=O)[C@@H]1CSCC(=O)CSC[C@H](NC(=O)[C@@H]2CCCN2)C(=O)N[C@@H](CC(C)C)C(=O)N[C@@H](Cc2ccc(O)cc2)C(=O)N[C@@H](CCCC)C(=O)N[C@@H](C)C(=O)N[C@@H](CCCNC(N)=O)C(=O)N1)C(=O)NCC(N)=O,,
39 nM,< 0.0833 h,C[C@@H](O)[C@@H]1NC(=O)[C@@H](NC(=O)CN)CSCC(=O)CSC[C@@H](C(=O)O)NC(=O)[C@@H]2CCCN2C(=O)[C@H](Cc2ccc(O)cc2)NC(=O)[C@H](CCC(N)=O)NC(=O)[C@H](CCCNC(=N)N)NC1=O (H-GCTRQYPC-OH; linker 2-8 via CH2COCH2),2.2 nM,
,,CSCC[C@H](N)C(=O)N[C@H]1CSCC(=O)CSC[C@@H](C(=O)N[C@H]2CSCC(=O)CSC[C@@H](C(=O)N3CCC[C@H]3C(=O)O)NC(=O)[C@H]([C@@H](C)O)NC(=O)[C@H](CCCNC(=N)N)NC(=O)[C@H](CCC(N)=O)NC(=O)[C@@H]3CCCN3C2=O)NC(=O)[C@H](CC(C)C)NC(=O)[C@H](CO)NC(=O)[C@@H]2CCCN2C(=O)[C@H](CC(=O)O)NC(=O)[C@H](Cc2c[nH]c3ccccc23)NC(=O)[C@H](CCC(N)=O)NC(=O)[C@H](CCCNC(=N)N)NC(=O)[C@H](CO)NC1=O,24 nM,
164 nM,0.4 h,CCCCCCCCCCCCCCCC(=O)NCCCC[C@H](NC(=O)[C@H](CCC(=O)O)NC(=O)[C@H](Cc1ccc(O)cc1)NC(=O)[C@H](CCC(=O)O)NC(=O)COCCOCCNC(=O)c1ccc(-c2c3ccc(=O)cc-3oc3cc(O)ccc23)c(C(=O)O)c1)C(=O)N[C@@H](CCC(=O)O)C(=O)N[C@@H](Cc1ccc(O)cc1)C(=O)N[C@@H](CCC(=O)O)C(=O)NCCOCCOCC(=O)NCCCC[C@H](NC(=O)CNC(=O)[C@@H]1CSCC(=O)CSC[C@H](NC(=O)[C@@H]2CCCN2)C(=O)N[C@@H](CC(C)C)C(=O)N[C@@H](Cc2ccc(O)cc2)C(=O)N[C@@H](CC(C)C)C(=O)N[C@@H](C)C(=O)N[C@@H](CCCNC(=N)N)C(=O)N1)C(=O)NCC(N)=O,,Ki (Kallikrein-7): 31 nM
,> 96 h,CCCCCCCCCCCCCCCC(=O)NCCCC[C@H](NC(=O)[C@H](CCC(=O)O)NC(=O)[C@H](Cc1ccc(O)cc1)NC(=O)[C@H](CCC(=O)O)NC(=O)COCCOCCNC(=O)c1ccc(-c2c3ccc(=O)cc-3oc3cc(O)ccc23)c(C(=O)O)c1)C(=O)N[C@@H](CCC(=O)O)C(=O)N[C@@H](Cc1ccc(O)cc1)C(=O)N[C@@H](CCC(=O)O)C(=O)NCCOCCOCC(=O)NCCCC[C@H](NC(=O)CNC(=O)[C@@H]1CSCC(=O)CSC[C@H](NC(=O)[C@@H]2CCCN2)C(=O)N[C@@H](CC(C)C)C(=O)N[C@@H](Cc2ccc(O)cc2)C(=O)N[C@@H](CCCC)C(=O)N[C@@H](C)C(=O)NCC(=O)N1)C(=O)NCC(N)=O,,
,4 h,CCCCCCCCCCCCCCCC(=O)NCCCC[C@H](NC(=O)[C@H](CCC(=O)O)NC(=O)[C@H](Cc1ccc(O)cc1)NC(=O)[C@H](CCC(=O)O)NC(=O)COCCOCCNC(=O)c1ccc(-c2c3ccc(=O)cc-3oc3cc(O)ccc23)c(C(=O)O)c1)C(=O)N[C@@H](CCC(=O)O)C(=O)N[C@@H](Cc1ccc(O)cc1)C(=O)N[C@@H](CCC(=O)O)C(=O)NCCOCCOCC(=O)NCCCC[C@H](NC(=O)CNC(=O)[C@@H]1CSCC(=O)CSC[C@H](NC(=O)[C@@H]2CCCN2)C(=O)N[C@@H](CC(C)C)C(=O)N[C@@H](Cc2ccc(O)cc2)C(=O)N[C@@H](CCCC)C(=O)N[C@@H](C)C(=O)N[C@@H](CCCCNC(=N)N)C(=O)N1)C(=O)NCC(N)=O,,
,,C[C@@H](O)[C@@H]1NC(=O)[C@@H](NC(=O)CN)CSCC(=O)CSC[C@@H](C(=O)O)NC(=O)[C@@H]2CCCN2C(=O)[C@H](Cc2ccc(O)cc2)NC(=O)[C@H](CCC(=O)O)NC(=O)[C@H](CCCNC(=N)N)NC1=O,3.2 nM,
168 nM,,CCCCCCCCCCCCCCCC(=O)NCCCC[C@H](NC(=O)[C@H](CCC(=O)O)NC(=O)[C@H](Cc1ccc(O)cc1)NC(=O)[C@H](CCC(=O)O)NC(=O)COCCOCCNC(=O)c1ccc(-c2c3ccc(=O)cc-3oc3cc(O)ccc23)c(C(=O)O)c1)C(=O)N[C@@H](CCC(=O)O)C(=O)N[C@@H](Cc1ccc(O)cc1)C(=O)N[C@@H](CCC(=O)O)C(=O)NCCOCCOCC(=O)N1CCC[C@H]1C(=O)N[C@H]1CSCC(=O)CSC[C@@H](C(=O)N[C@@H](CO)C(N)=O)NC(=O)[C@H](CCCNC(=N)N)NC(=O)[C@H](C)NC(=O)[C@H](CC(C)C)NC(=O)[C@H](Cc2ccc(O)cc2)NC(=O)[C@H](CC(C)C)NC1=O,,Ki (Kallikrein-7): 106 nM
,,CC(C)C[C@@H]1NC(=O)[C@@H](NC(=O)[C@H](CCC(N)=O)NC(=O)[C@@H]2CCCN2C(=O)[C@H](CC(N)=O)NC(=O)[C@H](C)NC(=O)[C@@H]2CSCC(=O)CSC[C@H](NC(=O)[C@H](C)N)C(=O)N[C@@H]([C@@H](C)O)C(=O)N[C@@H](CCCNC(=N)N)C(=O)N[C@@H](CCC(=O)O)C(=O)N[C@@H](Cc3ccc(O)cc3)C(=O)N[C@@H](CC(N)=O)C(=O)N3CCC[C@H]3C(=O)N[C@@H](CCC(N)=O)C(=O)N2)CSCC(=O)CSC[C@@H](C(=O)N[C@@H](Cc2cnc[nH]2)C(=O)O)NC1=O,28 nM,
,,CC(C)C[C@@H]1NC(=O)[C@@H](NC(=O)[C@H](CCC(N)=O)NC(=O)[C@@H]2CCCN2C(=O)[C@H](CC(N)=O)NC(=O)[C@H](C)NC(=O)[C@@H]2CSCc3cccc(n3)CSC[C@H](NC(=O)[C@H](C)N)C(=O)N[C@@H]([C@@H](C)O)C(=O)N[C@@H](CCCNC(=N)N)C(=O)N[C@@H](CCC(=O)O)C(=O)N[C@@H](Cc3ccc(O)cc3)C(=O)N[C@@H](CC(N)=O)C(=O)N3CCC[C@H]3C(=O)N[C@@H](CCC(N)=O)C(=O)N2)CSCc2cccc(n2)CSC[C@@H](C(=O)N[C@@H](Cc2cnc[nH]2)C(=O)O)NC1=O,6.1 nM,
,,CC(C)[C@H](NC(=O)[C@H]1CSCc2cccc(n2)CSC[C@@H](NC(=O)[C@H](CO)NC(=O)CNC(=O)[C@@H]2CCCN2C(=O)[C@@H](NC(=O)[C@H](CO)NC(=O)[C@H](CC(=O)O)NC(=O)[C@@H]2CSCc3cccc(n3)CSC[C@H](NC(=O)CN)C(=O)N[C@@H]([C@@H](C)O)C(=O)N[C@@H](CCCNC(=N)N)C(=O)N[C@@H](CCC(N)=O)C(=O)N[C@@H](Cc3c[nH]c4ccccc34)C(=O)N3CCC[C@H]3C(=O)N2)C(C)C)C(=O)N[C@@H]([C@@H](C)O)C(=O)N1)C(=O)O,,Ki (Kallikrein-5; cho): 2.7 nM
,,C[C@@H](O)[C@@H]1NC(=O)[C@@H](NC(=O)CN)CSCC(=O)CSC[C@@H](C(=O)O)NC(=O)[C@@H]2CCCN2C(=O)[C@H](Cc2c[nH]c3ccccc23)NC(=O)[C@H](CCC(=O)O)NC(=O)[C@H](CCCNC(=N)N)NC1=O,5.1 nM,
,,CC(C)[C@H](NC(=O)[C@H]1CSCc2cccc(n2)CSC[C@@H](NC(=O)[C@H](CO)NC(=O)CNC(=O)[C@@H]2CCCN2C(=O)[C@@H](NC(=O)[C@H](CO)NC(=O)[C@H](CC(=O)O)NC(=O)[C@@H]2CSCc3cccc(n3)CSC[C@@H](NC(=O)CN)C(=O)N[C@@H]([C@@H](C)O)C(=O)N[C@@H](CCCNC(=N)N)C(=O)N[C@@H](CCC(N)=O)C(=O)N[C@@H](Cc3c[nH]c4ccccc34)C(=O)N3CCC[C@H]3C(=O)N2)C(C)C)C(=O)N[C@@H]([C@@H](C)O)C(=O)N1)C(=O)O,,Ki (Kallikrein-5; cho): 2 nM
39 nM,< 0.0833 h,CC(C)C[C@@H]1NC(=O)[C@H](Cc2ccc(O)cc2)NC(=O)[C@H](CC(C)C)NC(=O)[C@@H](NC(=O)[C@@H]2CCCN2)CSCC(=O)CSC[C@@H](C(=O)N[C@@H](CO)C(=O)O)NC(=O)[C@H](CCCNC(=N)N)NC(=O)[C@H](C)NC1=O (H-PCLYLARCS-OH; linker 2-8 via CH2COCH2),,Ki (Kallikrein-7; cho): 16 nM
,,C[C@@H](O)[C@@H]1NC(=O)[C@@H](NC(=O)CN)CSCC(=O)CSC[C@@H](C(=O)O)NC(=O)[C@@H]2CCCN2C(=O)[C@H](Cc2c[nH]c3ccccc23)NC(=O)[C@H](CCC(N)=O)NC(=O)[C@H](CCCNC(=N)N)NC1=O,3.6 nM,
